# Measured values published in patent US20210161147A1, “BROAD SPECTRUM COSMETIC PRESERVATIVE SYSTEM” (priority 2019, published 2021).
# Tested on: microbes (bacteria and fungi)
# Assay: USP 51, Antimicrobial Effectiveness Test
# Type: cell-based
# Details: combined with 12.5 ppm colloidal silver; aqueous solution containing seaweed extract
structure (smiles),measurement,value
"CS(C)(=O)=O [MSM, methylsulfonylmethane]",sufficient concentration of MSM for effective cosmetic preservation per USP 51,10 % (w/w)
